Patent US20080200454A1, “CARBON-LINKED TETRAHYDRO-PYRAZOLO-PYRIDINE MODULATORS OF CATHEPSIN S” (priority 2007, published 2008)
Read-outs that look alike come from different tables or passages of the source.

Target: Recombinant human cathepsin S (CatS) (Homo sapiens, UniProt P25774)
Experiment: Recombinant human cathepsin S (CatS) inhibition assay, fluorogenic substrate Z-Valine-Valine-Arginine-AMC;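 also: Baculovirus-expressed CatS in pH 5.0 sodium acetate buffer with DTT and NaCl, fluorescence read each minute over 20 min, inhibition derived from rate slope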

Sequence of Recombinant human cathepsin S (CatS) (P25774 115-331): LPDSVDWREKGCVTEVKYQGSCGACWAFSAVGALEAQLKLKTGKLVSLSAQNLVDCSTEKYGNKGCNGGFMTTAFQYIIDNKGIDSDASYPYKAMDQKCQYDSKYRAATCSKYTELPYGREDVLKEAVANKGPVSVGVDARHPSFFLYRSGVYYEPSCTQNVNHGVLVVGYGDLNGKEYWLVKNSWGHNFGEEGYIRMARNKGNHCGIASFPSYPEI

SMILES	IC50 [µM]	IC50 (CatS IC50) [µM]
CCN(CC)CC#Cc1cc(-c2nn(CCCN3CCOCC3)c3c2CN(S(C)(=O)=O)CC3)ccc1Cl [Example 49, (3-{2-Chloro-5-[5-methanesulfonyl-1-(3-morpholin-4-yl-propyl)-4,5,6,7-tetrahydro-1H-pyrazolo[4,3-c]pyridin-3-yl]-phenyl}-prop-2-ynyl)-diethyl-amine]	19.5	–
CS(=O)(=O)N1CCc2c(c(-c3ccc(Cl)c(C#CCN4CCS(=O)(=O)CC4)c3)nn2CCCN2CCOCC2)C1 [Example 50, 3-{4-Chloro-3-[3-(1,1-dioxo-1 A^6-thiomorpholin-4-yl)-prop-1-ynyl]-phenyl}-5-methanesulfonyl-1-(3-morpholin-4-yl-propyl)-4,5,6,7-tetrahydro-1H-pyrazolo[4,3-c]pyridine]	6.8	–
CC(C)CC#Cc1cc(-c2nn(CCCN3CCOCC3)c3c2CN(S(C)(=O)=O)CC3)ccc1Cl [Example 51, 3-[4-Chloro-3-(4-methyl-pent-1-ynyl)-phenyl]-5-methanesulfonyl-1-(3-morpholin-4-yl-propyl)-4,5,6,7-tetrahydro-1H-pyrazolo[4,3-c]pyridine]	–	8.25
CS(=O)(=O)N1CCc2c(c(-c3ccc(Cl)c(C#CCOc4ccccc4)c3)nn2CCCN2CCOCC2)C1 [Example 52, 3-[4-Chloro-3-(3-phenoxy-prop-1-ynyl)-phenyl]-5-methanesulfonyl-1-(3-morpholin-4-yl-propyl)-4,5,6,7-tetrahydro-1H-pyrazolo[4,3-c]pyridine]	13.5	–
CS(=O)(=O)N1CCc2c(c(-c3ccc(Cl)c(C#CCNC(=O)c4ccccc4)c3)nn2CCCN2CCOCC2)C1 [Example 53, N-(3-{2-Chloro-5-[5-methanesulfonyl-1-(3-morpholin-4-yl-propyl)-4,5,6,7-tetrahydro-1H-pyrazolo[4,3-c]pyridin-3-yl]-phenyl}-prop-2-ynyl)-benzamide]	15.5	–
CS(=O)(=O)N1CCc2c(c(-c3ccc(Cl)c(C#CCNS(=O)(=O)c4ccccc4)c3)nn2CCCN2CCOCC2)C1 [Example 54, N-(3-{2-Chloro-5-[5-methanesulfonyl-1-(3-morpholin-4-yl-propyl)-4,5,6,7-tetrahydro-1H-pyrazolo[4,3-c]pyridin-3-yl]-phenyl]-prop-2-ynyl)-benzenesulfonamide]	7.05	–
CS(=O)(=O)N1CCc2c(c(-c3ccc(Cl)c(CCc4ccc(F)cc4F)c3)nn2CCCN2CCOCC2)C1 [Example 59, 3-{4-Chloro-3-[2-(2,4-difluoro-phenyl)-ethyl]-phenyl}-5-methanesulfonyl-1-(3-morpholin-4-yl-propyl)-4,5,6,7-tetrahydro-1H-pyrazolo[4,3-c]pyridine]	0.66	–

More lines, main results first:

IC50 [µM]	SMILES	IC50 (CatS IC50) [µM]
1.07	CS(=O)(=O)N1CCc2c(c(-c3ccc(Cl)c(CCc4ccc(Oc5ccccc5)cc4)c3)nn2CCCN2CCOCC2)C1 [Example 55, 3-{4-Chloro-3-[2-(4-phenoxy-phenyl)-ethyl]-phenyl}-5-methanesulfonyl-1-(3-morpholin-4-yl-propyl)-4,5,6,7-tetrahydro-1H-pyrazolo[4,3-c]pyridine]	–
0.91	CS(=O)(=O)N1CCc2c(c(-c3ccc(Cl)c(CCc4cccc(O)c4)c3)nn2CCCN2CCOCC2)C1 [Example 56, 3-(2-{2-Chloro-5-[5-methanesulfonyl-1-(3-morpholin-4-yl-propyl)-4,5,6,7-tetrahydro-1H-pyrazolo[4,3-c]pyridin-3-yl]-phenyl}-ethyl)-phenol]	–
0.23	CS(=O)(=O)N1CCc2c(c(-c3ccc(Cl)c(CCc4ccc(Cl)cc4)c3)nn2CCCN2CCOCC2)C1 [Example 57, 3-{4-Chloro-3-[2-(4-chloro-phenyl)-ethyl]-phenyl}-5-methanesulfonyl-1-(3-morpholin-4-yl-propyl)-4,5,6,7-tetrahydro-1H-pyrazolo[4,3-c]pyridine]	–
0.53	COc1ccc(CCc2cc(-c3nn(CCCN4CCOCC4)c4c3CN(S(C)(=O)=O)CC4)ccc2Cl)cc1 [Example 58, 3-{4-Chloro-3-[2-(4-methoxy-phenyl)-ethyl]-phenyl}-5-methanesulfonyl-1-(3-morpholin-4-yl-propyl)-4,5,6,7-tetrahydro-1H-pyrazolo[4,3-c]pyridine]	–
